This experiment addresses T1, TLR8 (Homo sapiens, UniProt Q9NR97).
T1 sequence (Q9NR97 27-827): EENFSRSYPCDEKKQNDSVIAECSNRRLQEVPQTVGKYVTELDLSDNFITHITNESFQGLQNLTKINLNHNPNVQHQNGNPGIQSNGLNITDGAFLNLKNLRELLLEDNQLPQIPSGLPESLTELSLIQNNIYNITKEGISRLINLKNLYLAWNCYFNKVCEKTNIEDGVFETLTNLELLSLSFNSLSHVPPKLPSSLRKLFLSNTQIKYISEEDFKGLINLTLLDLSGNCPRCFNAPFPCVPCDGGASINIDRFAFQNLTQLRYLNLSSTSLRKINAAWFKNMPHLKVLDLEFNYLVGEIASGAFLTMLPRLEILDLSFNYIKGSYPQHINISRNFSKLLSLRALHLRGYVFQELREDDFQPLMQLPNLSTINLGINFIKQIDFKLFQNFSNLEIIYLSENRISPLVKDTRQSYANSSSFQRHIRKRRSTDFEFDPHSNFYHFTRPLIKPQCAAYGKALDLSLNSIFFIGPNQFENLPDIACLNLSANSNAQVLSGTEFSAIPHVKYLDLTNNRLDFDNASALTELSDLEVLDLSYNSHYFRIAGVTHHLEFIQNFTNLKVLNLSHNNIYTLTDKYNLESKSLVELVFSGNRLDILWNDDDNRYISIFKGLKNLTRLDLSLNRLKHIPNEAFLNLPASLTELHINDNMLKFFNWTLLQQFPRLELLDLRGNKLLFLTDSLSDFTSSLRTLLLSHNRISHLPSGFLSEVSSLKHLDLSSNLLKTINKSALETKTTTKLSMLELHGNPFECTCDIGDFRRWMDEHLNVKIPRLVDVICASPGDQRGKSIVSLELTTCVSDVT
Nature of the experiment: ITC. The class given is binding.

`O=c1ccn([C@@H]2O[C@H](CO)[C@@H](O)[C@H]2O)c(=O)[nH]1` [uridine] came in with a Kd of 12 µM.

The values above are taken from publication PMC8285539, “Tetrasubstituted imidazoles as incognito Toll-like receptor 8 a(nta)gonists” (Nature Communications, 2021).
